In patent US11957766B2, “HNQO1-activatable fluorescent probe for imaging cancer cells in-vitro and in-vivo” (Texas Tech University System, priority 2019, dated 2024):

Assays:
[1] = tested on: brain tumor (DAOY, T98G, and U87MG) and normal (astrocytes) cells; assay: Cytotoxicity of NQ-DCP, resazurin reduction assay; format: cell-based, human; details: 100 μM, 72 h incubation
Method: Visualization of Cancer Cells by Fluorescence Imaging of hNQO1. […] The cytotoxicity of NQ-DCP was initially evaluated in cultured brain tumor (DAOY, T98G, and U87MG) and normal (astrocytes) cells to assess its biocompatibility using the resazurin reduction assay. […] Cells were incubated with NQ-DCP (10 μM) for 60 min, washed with PBS and were imaged under a fluorescence microscope.

NQO1 [2] = target: T1, NQO1 (Homo sapiens, UniProt P15559); assay: HPLC analysis of NQO1 catalyzed conversion of NIR-ASM; format: biochemical; parameters: purchased Sigma-Aldrich D1515; details: after 30 min of incubation
Description: Design, preparation, and characterization of the NIR-ASM fluorescent probe. Imaging agents emitting near-infrared fluorescence enable deeper penetration with low phototoxicity and high signal-to-background ratios due to minimal tissue auto-fluorescence, which is a prime requirement for in vivo imaging studies.^40,41 Accordingly, the inventors designed an NQO1 activatable near-infrared fluorescent probe (NIR-ASM) by attaching a trimethyl-lock QPA with (E)-2-(3-(4-aminostyryl)-5,5-dimethylcyclohex-2-en-1-ylidene)malononitrile (ASM) for molecular imaging of cancer cells in vivo (FIG. 9A). The fluorophore ASM was used in this study because of its strong NIR fluorescence signal with substantial Stokes shift (˜190 nm), to eliminate background interferences by avoiding reabsorption of emitted photons. […] NQO1 is a ubiquitous cytosolic two-electron reductase that catalyzes the reduction of quinone substrates in the presence of NADH. Upon interaction with NQO1 in the presence of NADH, QPA present in non-fluorescent NIR-ASM undergoes two-electron reduction to form an o-hydroxydihydrocinnamic acid derivative that undergoes rapid lactonization under physiological conditions to yield dihydrocoumarin, 6-hydroxy-4,4,5,7,8-pentamethylchroman-2-one (HPC) along with highly fluorescent ASM. […]

[3] = tested on: A549 and NCI-H460 cancer cells, IMR 90 and HUVECs normal cells; assay: Cytotoxicity of NIR-ASM, resazurin reduction assay; format: cell-based, human; details: up to 100 μM, 72 h
Method: Assessment of NIR-ASM biocompatibility. Inspired by the excellent photophysical properties of NIR-ASM in monitoring the NQO1 activity in vitro, the inventors determined the biocompatibility of NIR-ASM both in vitro and in vivo before using for endogenous applications. […] Further, to evaluate NIR-ASM tolerability and toxicity in vivo, CD1 mice were grouped for the administration of vehicle (PEG:H2O:EtOH) alone or 5 mg/kg of NIR-ASM five times a week for five weeks. The average mouse weights were monitored as a surrogate marker to the toxicity.
Cell viability assays. NIR-ASM was evaluated for in vitro cytotoxicity in human cancer (A549 and H460) and normal (IMR90 and HUVECs) cell lines following a protocol of 72 h continuous drug exposure using resazurin reduction assay. The cell lines were grown in 96-well microtiter plates at a density of 5000 cells per well. The plates were incubated for 24 h prior to addition of NIR-ASM. Ten concentrations of NIR-ASM were evaluated in quadruplicate sets. Plates were incubated for a further 72 h and replaced with 20 μL resazurin 0.01% (w/v) containing the medium. After 2 h, the fluorescence was measured using a Tecan Reader (Infinite m200 Pro) at a 544 nm excitation and 590 nm emission.

NQO1 [4] = target: T1, NQO1; assay: Kinetics of NQO1 towards NIR-ASM (Michaelis-Menten); format: biochemical; parameters: purchased Sigma-Aldrich D1515; details: NQO1 2 μg/mL, NADH 100 μM
Method: Next, the kinetics of fluorescent product formation was assessed. […] From this experiment, the initial rate of ASM formation, V (μmol min^−1 μg NQO1^−1), was calculated and then plotted as a function of NIR-ASM concentration (FIG. 10C).
Kinetic studies. Kinetic studies were performed using a microplate reader under philological conditions (PBS with 0.1% of BSA at 37° C.). The assay buffer contained 2 μg/mL of NQO1, 100 μM NADH and different concentrations of NIR-ASM (0-100 μM) in a total volume of 100 μL. Time-dependent fluorescence measurements were carried out to monitor the release of ASM by NQO1 activation of NIR-ASM (λex/em 460/646), and the data were collected every minute for 90 minutes. This assay was repeated two times in triplicate and the fluorescence readings were optimized to a standard curve of ASM of known concentration and calculated the velocity in terms of μmol^−1 min^−1 μg NQO1. A plot of the velocities and NIR-ASM concentration was used to obtaining the apparent kinetic parameters Km and Vmax from nonlinear regression analysis and Michaelis-Menton constant using the GraphPad Prism.

[5] = tested on: human NQO1 transfected MDA-MB-231 cells; assay: NIR-ASM in NQO1 gene transfected MDA-MB-231 cells; format: cell-based; details: microscopy and flow cytometry
Method: Chemical and genetic approaches confirm the specificity of NIR-ASM for NQO1 in live tumor cells. A fluorescence probe with high sensitivity, simple operation, and excellent specificity will be an asset for the detection of NQO1 in situ. To assess the substrate selectivity of NIR-ASM for NQO1, both A549 and H460 cells were pretreated with 100 nM of NQO1 inhibitor ES936 for 6 h, before incubating with 10 μM NIR-ASM. […] The effect of ES936 on endogenous NQO1 activity and subsequent reactivity with NIR-ASM was also determined by flow cytometry. […] The presence of NQO1 protein in the transfected MDA-MB-231 cells and its absence in the untransfected control was confirmed by immunoblotting (FIG. 13E). Subsequently, the NQO1-negative and positive MDA-MB-231 cell lines were incubated with NIR-ASM and analyzed by fluorescence microscopy and flow cytometry for activation of the probe.
NQO1 plasmid transfection. Cells were seeded at 60% confluence in six-well plates 16 h before transfection with the desired plasmids. Transfections were carried using a plasmid expressing wild-type NQO1 (pCDNA3 NQO1-Flag, addgene, 61729) and X-tremeGENE DNA transfection reagent (Roche) according to manufacturer instructions. One μg DNA was used in each transfection and cell extracts were prepared 24 h post-transfection to confirm NQO1 protein expression by Western blotting.

T1 sequence (P15559 whole entry): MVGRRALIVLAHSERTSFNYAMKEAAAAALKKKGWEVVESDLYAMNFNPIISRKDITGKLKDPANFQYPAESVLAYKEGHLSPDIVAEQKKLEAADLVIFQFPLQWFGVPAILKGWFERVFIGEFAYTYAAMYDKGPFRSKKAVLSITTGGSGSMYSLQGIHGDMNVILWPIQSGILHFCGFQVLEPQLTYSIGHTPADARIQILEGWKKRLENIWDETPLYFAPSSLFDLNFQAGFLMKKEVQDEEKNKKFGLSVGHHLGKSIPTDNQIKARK

| SMILES | cytotoxicity [1] | conversion into ASM by NQO1 (HPLC) (NQO1 [2]) | cytotoxicity [3] | maximum velocity (Vmax) (NQO1 [4]) [μmol min^−1 mg NQO1^−1] | fluorescence after NQO1 gene transfection [5] |
| --- | --- | --- | --- | --- | --- |
| CC1=C(C)C(=O)C(C(C)(C)CC(=O)Oc2ccc(/C=C/C3=CC(=C(C#N)C#N)CC(C)(C)C3)cc2)=C(C)C1=O [NQ-DCP] | nontoxic |  |  |  |  |
| CC1=C(C)C(=O)C(C(C)(C)CC(=O)Nc2ccc(/C=C/C3=CC(=C(C#N)C#N)CC(C)(C)C3)cc2)=C(C)C1=O [NIR-ASM, (E)-N-(4-(2-(3-(dicyanomethylene)-5,5-dimethylcyclohex-1-en-1-yl)vinyl)phenyl)-3-methyl-3-(2,4,5-trimethyl-3,6-dioxocyclohexa-1,4-dien-1-yl)butanamide] |  | nearly completely converted into ASM | not toxic | 0.00419±0.00003 | intense fluorescence |
